Test results published in patent US20100092534A1, “Combination Local Delivery Using a Stent” (Medtronic Vascular, Inc., priority 2008, published 2010).

What was measured:
[1] = Solubility in ethanol (coating solvent); type: physicochemical
Excerpt: In the following Example, ethanol is chosen as the solvent of choice. The coating to be applied to the stent is a bioactive agent combination, consisting of a mTOR inhibitor and a glucocorticoid. The mTOR inhibitor is zotarolimus. The glucocorticoid is fluocinolone. […] Persons having ordinary skill in the art of polymer chemistry can easily pair the appropriate solvent system to the polymer-bioactive agent(s) combination and achieve optimum results with no more than routine experimentation.

[2] = system: monocyte chemoattractant protein-1 (MCP-1); test: Relative gene expression of MCP-1 (mRNA) in stented porcine vessels; type: in vivo; settings: local delivery from a vascular stent; 7 days after stenting; compared to a bare metal stent; measured on mRNA; FIG. 1A
Excerpt: FIG. 1: Relative gene expression of (A) MCP-1 and (B) TF in porcine vessels that were stented with zotarolimus coated stents compared with uncoated stents and stents coated with fluocinolone. The drug doses are indicated in ug/mm^2. FIG. 2: Relative gene expression of MCP-1 in porcine vessels that were stented with stents coated with zotarolimus alone compared to stents coated with zotarolimus combined with fluocinolone or fluocinolone alone. The drug doses are indicated in ug/mm^2. […] Furthermore, following stent placement, MCP-1 levels in plasma increase after several days and are more likely to be elevated at follow-up 6 months later in patients who have restenosis. In one embodiment, a dose titration experiment can be conducted to determine the optimal dosage for combination of zotarolimus (e.g. anti-proliferative drug) and fluocinolone (e.g. anti-inflammatory drug). At an optimal dose zotarolimus can inhibit neointimal hyperplasia via inhibition of smooth muscle cells proliferation, while maintaining low levels of MCP-1 and TF due to the inhibitory effect of fluocinolone. […] The stented vessels can be excised 7 days post stenting and the expression of TF and MCP-1 can be evaluated via real time-PCR using porcine primers and probes, allowing the quantative measurement at transcriptional level.

[3] = system: tissue factor (TF); test: Relative gene expression of TF in stented porcine vessels; type: in vivo; settings: local delivery from a vascular stent; several days after stenting; FIG. 1B
Excerpt: FIG. 1: Relative gene expression of (A) MCP-1 and (B) TF in porcine vessels that were stented with zotarolimus coated stents compared with uncoated stents and stents coated with fluocinolone. The drug doses are indicated in ug/mm^2. As such, delivery of zotarolimus locally from a vascular stent increases the expression of TF in stented vessels. The increased expression can be seen several days after the stenting procedure was preformed (FIG. 1B). In one embodiment, a dose titration experiment can be conducted to determine the optimal dosage for combination of zotarolimus (e.g. anti-proliferative drug) and fluocinolone (e.g. anti-inflammatory drug). At an optimal dose zotarolimus can inhibit neointimal hyperplasia via inhibition of smooth muscle cells proliferation, while maintaining low levels of MCP-1 and TF due to the inhibitory effect of fluocinolone. The evaluation of MCP-1 and TF can be performed by conducting pre-clinical, porcine study using stents loaded with escalating doses of at least zotarolimus or in combination with escalating dosages of fluocinolone and evaluating the expression of MCP-1 and TF in the vessels stented with these stents. […] The stented vessels can be excised 7 days post stenting and the expression of TF and MCP-1 can be evaluated via real time-PCR using porcine primers and probes, allowing the quantative measurement at transcriptional level.

| SMILES | solubility in ethanol [1] | expression of monocyte chemoattractant protein-1 (MCP-1) in stented vessels [2] | expression of TF in stented vessels [3] |
| --- | --- | --- | --- |
| CC1(C)O[C@@H]2C[C@H]3[C@@H]4C[C@H](F)C5=CC(=O)C=C[C@]5(C)[C@@]4(F)[C@@H](O)C[C@]3(C)[C@]2(C(=O)CO)O1 [fluocinolone] | freely soluble | – | – |
| CO[C@H]1C[C@@H]2CC[C@@H](C)[C@@](O)(O2)C(=O)C(=O)N2CCCC[C@H]2C(=O)O[C@H]([C@H](C)C[C@@H]2CC[C@H](n3cnnn3)[C@H](OC)C2)CC(=O)[C@H](C)/C=C(\C)[C@@H](O)[C@@H](OC)C(=O)[C@H](C)C[C@H](C)/C=C/C=C/C=C/1C [zotarolimus] | freely soluble | increased | increases |
